The results in this text go back to patent US20140274785A1, “BIOMARKERS” (priority 2013, published 2014).

One test relates to SOD1-G93A TGN mice. In words: Onset of symptoms (stride length/gait analysis) and death in SOD1-G93A TGN mice, treatment started presymptomatic (7 weeks). Type of test: in vivo, mouse. The following applies: for Onset of motor deficits: vehicle 20% cyclodextran 88-100 days; for Mortality: vehicle 20% cyclodextran 105-112 days. On the procedure: The one and two-drug treatments were started at an early (i.e., presymptomatic) stage of disease (7 weeks). SOD1-G93A TGN mice were treated 3 times a week with noscapine (0.2 mg/kg body weight) and/or MK-801 (12 mg/kg body weight/day). Mice received noscapine intraperitoneally and MK-801 in drinking water.
Female SOD-1 G93A TGN mice were obtained from Jackson laboratory (strain #2726). The controls were matched litter mates. Treatment groups were three per group. Noscapine was injected intraperitoneal in the thigh 3 times/week (0.2 mg/kg i.p.) and MK801 was administered continuously in drinking water (12 mg/kg/d). Gait analysis was done by the method of Wooley et al., Muscle Nerve 2005 32(1):43-50 and Carter et al. J. Neurosci., 19(8):3248-3257, hereby incorporated by reference in their entirety.
For clinical assessment endpoints scoring was selected as follows:
Clinical signs: Full mobility and no observable difference in behavior from age-matched controls (Gait or stride length analysis).
Clinical signs: Abnormal Gait or stride length analysis and hindlimb weakness: >40% reduction in stride length vs. age-matched littermates.
Clinical signs: noticeable and complete hind limb paralysis (which in this strain occurs more on one limb than the other) and inability to right themselves in 5 sec time window. This stage starts usually as the mice are failing the gait analysis test and enter the End stage. Therefore, Transgenic SOD1-G93A TGN mice are euthanized at the onset of noticeable and complete hindlimb paralysis and inability to right themselves in 5 sec time window.

The test system of a further test is hyperdynamic MTs. Briefly: Microtubule turnover in MPTP-injected PD mouse model. Type of test: in vivo. The settings on record: treatment from 7 days after last MPTP injection for 10 days; n=4. On the procedure: FIGS. 28A-28B show an illustration of altered microtubule (MT) turnover in two preclinical models of Parkinson's disease (PD). (A) The acute MPTP intoxication PD model (8 wk old C57b1/6 mice were injected four times with 20 mg/kg on 1 day, at 2 h interval) show hyperdynamic tau-associated and cold-stable (CS) MTs in striatum and substantia nigra at 3 and 7 days after the last (fourth) MPTP injection (n=4 per group, males aged 8 weeks, mean±SD; *P<0.001). (B) In vivo MT dynamics was measured in substantia nigra and striatum at presymptomatic (4 and 10 months) and symptomatic (15 months) disease stage in transgenic alpha-synucleinA53T PD mice (−/−/SNCAA53T). […]
FIGS. 29A-29C show normalized microtubule (MT) turnover correlate with reverse of symptoms in the MPTP-injected PD mouse model after treatment with the MTMA noscapine. […] Neuromuscular strength was measured using the grip strength test (B) and the grid hang test (C). Grip strength test measured the tension peak of pull (gram of force) by the forepaws and it was performed 1 day before (day 0), 1, 2, 3, 4, 5, 7 and 17 days after the last (fourth) MPTP injection (n=10, males per each time point). The hang test was performed 17 days after the last (fourth) MPTP-injection and percentage of success was recorded as maximum time hanging/300 sec×100 (n=10, males per each time point).

Test [1] has as its system transport of neuronal cargo proteins. In words: CSF secretion kinetics of 2H-labeled cargo proteins in symptomatic PD MPTP-injected mice. The class given is in vivo, mouse. On the procedure:
Noscapine was administered 7 days after the last MPTP injection, treatment was for 10 days, and a pulse of ^2H2O labeling was administered on the last day of treatment (17 days after the fourth and final MPTP injection

The subject of another test is MPTP-injected mice. Briefly: Neuromuscular strength (grip strength test, grid hang test) in MPTP-injected mice. Type of test: in vivo, mouse. The following applies: treatment from 7 days after last MPTP injection for 10 days; n=10. On the procedure: Noscapine was administered at 7 days after the last MPTP-injection, treatment was for 10 days and a pulse of ^2H2O labeling was administered the last day of treatment (17 days after, fourth, MPTP injection). […] Neuromuscular strength was measured using the grip strength test (B) and the grid hang test (C). […] The hang test was performed 17 days after the last (fourth) MPTP-injection and percentage of success was recorded as maximum time hanging/300 sec×100 (n=10, males per each time point).

The subject of test [2] is fast axonal transport of 2H-labeled cargo proteins. Briefly: MT-mediated fast axonal transport: CSF secretion kinetics and spinal cord retention of 2H-labeled cargo proteins in symptomatic SOD1G93A mice. The class given is in vivo, mouse.

Entries after “also recorded” stand apart in the source; their conditions may differ.

For the compound `C[C@]12N[C@H](Cc3ccccc31)c1ccccc12` [MK-801, Dizocilipine], in the test with SOD1-G93A TGN mice, the “Onset of motor deficits” value lay within 105 to 112 days and the Mortality lay in the range of 112 to 119 days.
With `COc1ccc2c(c1OC)C(=O)O[C@@H]2[C@H]1c2c(cc3c(c2OC)OCO3)CCN1C` [Noscapine, noscapine], the “hyperdynamic MTs” value in the test on hyperdynamic MTs is recorded as “reduced hyperdynamic MTs”. The “kinetics of 2H-NeuR-1 in CSF” value in test [1] (symptomatic PD MPTP-injected mice) is “not adversely affected”. In addition, the “kinetics of secretion of 2H-Chr-B, 2H-sAPP in CSF” value in test [1] (treatment from 7 days after last MPTP injection for 10 days, n=10 per time point) is “normalized the kinetics of secretion”. Further, in the test with MPTP-injected mice, the “symptoms (grip strength test, grid hang test)” value is reported as “reverses symptoms”. Further, in test [2] (3 weeks treatment, 100 mg/kg/d and 200 mg/kg/d, 13 weeks mice), the “MT-mediated fast axonal transport rates of 2H-label neuregulin-1 and chromogranin-B containing synaptic vesicles” value is “normalized; also recorded: improves this delayed fast axonal transport”. The “kinetic of 2H-alpha synuclein in CSF” value in test [2] (symptomatic ALS SOD1G93A) is on record as “not adversely affected”. The “transport rates of 2H-Chr-B, 2H-NeuR-1 and 2H-sAPP in CSF” value in test [2] (symptomatic ALS SOD1G93A, vs age-matched wild type, n=10 per time point) is given as “normalized transport rates”. In the test with SOD1-G93A TGN mice, the “Onset of motor deficits” value was in the range of 98 to 105 days and the Mortality was in the range of 112 to 119 days.
